Values after ≈ are worked out from the molar mass of the structure shown. Where two headings read alike, the source gives them in different places.
What was measured:
[1] = system: Strep. pyogenes; assay: in vivo activity in mice infected with a lethal inoculum of Strep. pyogenes; details: Streptococcus pyogenes, multiple dosing
Description: (§1) In determining the in vivo activity of the quinoxaline-1,4-dioxides of this invention, the test compound is administered to mice which have been infected by […] injection of a lethal inoculum of pathogenic bacteria. The test compound is administered using a multiple dosing regimen and using either the oral (PO) or the subcutaneous (SC) route. The inoculum of bacteria varies from about 1 to about 10 times the amount needed to kill 100% of the mice under the conditions of the test. At the end of the test, the activity of the compound is assessed by counting the number of survivors among the treated animals.
(§2) In vitro and in vivo activity of representative compounds of this invention, determined as aforesaid, are reported in the following tabulation for compounds of the formula: [drawing 12]

[2] = system: E. coli; assay: in vivo activity in mice infected with a lethal inoculum of E. coli; details: Escherichia coli, sc, subcutaneous, multiple dosing, read-out: IN VIVO E. coli, number of survivors among the treated animals
Description: as §1, §2

[3] = system: Strep. pyrogens; assay: in vitro antibacterial activity, two-fold serial dilution in Brain-Heart Infusion Broth (MIC); assay type: cell-based; details: overnight, anaerobic
Description: (§3) The broth is inoculated with bacteria and with the test quinoxaline-1,4-dioxide and then it is incubated overnight under anerobic conditions. On the next day, the test is read visually. The minimum inhibitory concentration (MIC) of test compound is the lowest concentration which prevents turbidity, i.e., which prevents growth of the microorganism.
as §2

[4] = system: E. coli; assay: as above; assay type: cell-based; details: Escherichia coli, overnight, anaerobic
Description: as §3, §2

[5] = sc, subcutaneous, read-out: IN VIVO Strep. pyogenes, number of survivors among the treated animals
[6] = oral, read-out: IN VIVO Strep. pyogenes, number of survivors among the treated animals, PO (data in parenthesis)

Compound	responders at 50 mg/kg [1, 5] [%]	responders at 25 mg/kg [2] [%]	MIC [3] [µg/mL]	MIC [4] [µg/mL]	responders at 50 mg/kg [1, 6] [%]
CNC(=O)c1c(CS(=O)(=O)CCCN(C)C)[n+]([O-])c2ccccc2[n+]1[O-] [NHCH3; SO2 (CH2)3 N(CH3)2; H]	100	100	3.12 (≈ 8.17 µM)	6.25 (≈ 16.3 µM)	–
CN(C)CCNC(=O)c1c(CS(=O)(=O)CCO)[n+]([O-])c2ccccc2[n+]1[O-] [NHCH2 CH2 N(CH3)2; SO2 CH2 CH2 OH; H]	20	0	100 (≈ 251 µM)	50 (≈ 125 µM)	–
O=C(NCCO)c1c(CS(=O)(=O)CCO)[n+]([O-])c2ccccc2[n+]1[O-] [NHCH2 CH2 OH; SO2 CH2 CH2 OH; H]	30	10	25 (≈ 67.3 µM)	100 (≈ 269 µM)	10
COCCNC(=O)c1c(CS(=O)(=O)CCO)[n+]([O-])c2ccccc2[n+]1[O-] [NHCH2 CH2 OCH3; SO2 CH2 CH2 OH; H]	40	0	0.781 (≈ 2.03 µM)	12.5 (≈ 32.4 µM)	0
CCCNC(=O)c1c(CS(=O)(=O)CCCN(C)C)[n+]([O-])c2ccccc2[n+]1[O-] [NHCH2 CH2 CH3; SO2 (CH2)3 N(CH3)2; H]	100	20	25 (≈ 60.9 µM)	25 (≈ 60.9 µM)	80
NC(=O)c1c(CS(=O)(=O)CCCN2CCCC2)[n+]([O-])c2ccccc2[n+]1[O-] [NH2; drawing 14; H]	–	50	6.25 (≈ 15.8 µM)	12.5 (≈ 31.7 µM)	–
CCNC(=O)c1c(CS(=O)(=O)CCCO)[n+]([O-])c2ccccc2[n+]1[O-] [NHCH2 CH3; SO2 CH2 CH2 CH2 OH; H]	80	10	< 0.39	6.25 (≈ 16.9 µM)	20
COCCNC(=O)c1c(CS(=O)(=O)CCCOC(C)=O)[n+]([O-])c2ccccc2[n+]1[O-] [NHCH2 CH2 OCH3; SO2 CH2 CH2 CH2 OAc; H]	20	10	12.5 (≈ 28.3 µM)	100 (≈ 227 µM)	10
CC(=O)OCCCSCc1c(C(=O)NCCO)[n+]([O-])c2ccccc2[n+]1[O-] [NHCH2 CH2 OH; S(CH2)3 OAc; H]	10	30	6.25 (≈ 15.8 µM)	100 (≈ 253 µM)	30
CCSCCNC(=O)c1c(CS(=O)(=O)CCO)[n+]([O-])c2ccccc2[n+]1[O-] [NHCH2 CH2 SCH2 CH3; SO2 CH2 CH2 OH; H]	10	50	1.56 (≈ 3.76 µM)	100 (≈ 241 µM)	0
CNC(=O)c1c(CS(=O)(=O)CCCN2CCCC2)[n+]([O-])c2ccccc2[n+]1[O-] [NHCH3; drawing 13; H]	–	80	3.12 (≈ 7.65 µM)	6.25 (≈ 15.3 µM)	–
CN(C)CCCS(=O)(=O)Cc1c(C(=O)N(C)C)[n+]([O-])c2ccccc2[n+]1[O-] [N(CH3)2; SO2 (CH2)3 N(CH3)2; H]	100	100	3.12 (≈ 7.88 µM)	3.12 (≈ 7.88 µM)	60
CCCCNC(=O)c1c(CSCCO)[n+]([O-])c2ccccc2[n+]1[O-] [NHBu; SCH2 CH2 OH; H]	20	0	50 (≈ 142 µM)	50 (≈ 142 µM)	10
CCCNC(=O)c1c(CS(=O)(=O)CCO)[n+]([O-])c2ccccc2[n+]1[O-] [NHPr; SO2 CH2 CH2 OH; H]	40	20	3.12 (≈ 8.46 µM)	3.12 (≈ 8.46 µM)	70
CCCNC(=O)c1c(CS(=O)(=O)CCCOC(C)=O)[n+]([O-])c2ccccc2[n+]1[O-] [NHCH2 CH2 CH3; SO2 CH2 CH2 CH2 OAc; H]	30	0	50 (≈ 118 µM)	200 (≈ 470 µM)	0
CCNC(=O)c1c(CSCCCOC(C)=O)[n+]([O-])c2ccccc2[n+]1[O-] [NHCH2 CH3; SCH2 CH2 CH2 OAc; H]	10	0	3.12 (≈ 8.24 µM)	25 (≈ 65.9 µM)	20
CCCCNC(=O)c1c(CS(=O)(=O)CCCN(C)C)[n+]([O-])c2ccccc2[n+]1[O-] [NH(CH2)3 CH3; SO2 (CH2)3 N(CH3)2; H]	100	50	25 (≈ 58.9 µM)	25 (≈ 58.9 µM)	80
